Results reported in ChEMBL document CHEMBL5634137, “2,4-Diacetylphloroglucinol (DAPG) derivatives rapidly eradicate methicillin-resistant staphylococcus aureus without resistance development by disrupting membrane” (Eur J Med Chem, 2023).
In brackets after ≈: the same amount, converted by molar mass.

Key:
Staphylococcus aureus [1] = assay: Bactericidal activity against methicillin-resistant Staphylococcus aureus ATCC 3392 assessed as inhibition of bacterial growth incubated for 24 hrs by broth dilution method; format: functional
Staphylococcus aureus [2] = assay: Bactericidal against methicillin-resistant Staphylococcus aureus ATCC 4330 assessed as inhibition of bacterial growth incubated for 24 hrs by broth dilution method; format: functional
Klebsiella pneumoniae = assay: Antibacterial activity against Klebsiella pneumoniae […] assessed as inhibition of bacterial growth incubated for 24 hrs by broth dilution method; format: functional
Staphylococcus aureus [3] = assay: Selectivity index, ratio of MBC for bactericidal against methicillin-resistant Staphylococcus aureus ATCC 3392 to MIC for antibacterial activity against methicillin-resistant Staphylococcus aureus ATCC 3392; format: functional
Staphylococcus aureus [4] = assay: Antibacterial activity against methicillin-resistant Staphylococcus aureus ATCC 4330 assessed as inhibition of bacterial growth incubated for 24 hrs by broth dilution method; format: functional
Escherichia coli = assay: Antibacterial activity against Escherichia coli ATCC 11775 assessed as inhibition of bacterial growth incubated for 24 hrs by broth dilution method; format: functional
Pseudomonas aeruginosa = assay: Antibacterial activity against Pseudomonas aeruginosa […] assessed as inhibition of bacterial growth incubated for 24 hrs by broth dilution method; format: functional
Staphylococcus aureus [5] = assay: Antibacterial activity against Methicillin-resistant Staphylococcus aureus USA300 assessed as inhibition of bacterial growth incubated for 24 hrs by broth dilution method; format: functional
Staphylococcus aureus [6] = assay: Selectivity index, ratio of MBC for bactericidal against methicillin-resistant Staphylococcus aureus ATCC 4330 to MIC for antibacterial activity against methicillin-resistant Staphylococcus aureus ATCC 4330; format: functional
Staphylococcus aureus [7] = assay: Antibacterial activity against methicillin-resistant Staphylococcus aureus ATCC 3392 assessed as inhibition of bacterial growth incubated for 24 hrs by broth dilution method; format: functional
[8] = Cytotoxicity against human L02 cells assessed as survival rate incubated for 24 hrs by MTT assay; format: toxicity, cell-based; parameters: concentration or dose not given beside the values; conditions: read-out: Survival
[9] = Cytotoxicity against mouse RAW264.7 cells assessed as survival rate incubated for 24 hrs by MTT assay; format: toxicity, cell-based; parameters: concentration or dose not given beside the values; conditions: read-out: Survival

SMILES	MBC (Staphylococcus aureus [1]) [µg/mL]	MBC (Staphylococcus aureus [2]) [µg/mL]	MIC (Klebsiella pneumoniae) [µg/mL]	Selectivity Index (Staphylococcus aureus [3])	MIC (Staphylococcus aureus [4]) [µg/mL]	MIC (Escherichia coli) [µg/mL]	MIC (Pseudomonas aeruginosa) [µg/mL]	MIC (Staphylococcus aureus [5]) [µg/mL]	Selectivity Index (Staphylococcus aureus [6])	MIC (Staphylococcus aureus [7]) [µg/mL]	viability at 24 h [8] [%]	viability at 24 h [9] [%]
CC(C)(C)CC(=O)c1c(O)cc(O)c(C(=O)CC(C)(C)C)c1O	4 (≈ 12.4 µM)	4 (≈ 12.4 µM)	> 64	8	0.5 (≈ 1.55 µM)	> 64	> 64	0.5 (≈ 1.55 µM)	8	0.5 (≈ 1.55 µM)	–	–
O=C(c1c(O)cc(O)cc1O)C1CC1	–	–	–	–	16 (≈ 82.4 µM)	–	–	–	–	32 (≈ 165 µM)	–	–
CCC(=O)c1c(O)cc(O)c(C(=O)CC)c1O	–	–	–	–	4 (≈ 16.8 µM)	–	–	–	–	8 (≈ 33.6 µM)	–	–
CCCC(=O)c1c(O)cc(O)c(C(=O)CCC)c1O	–	–	–	–	4 (≈ 15 µM)	–	–	–	–	4 (≈ 15 µM)	–	–
CCCCCCCCCCCCCCCC(=O)c1c(O)cc(O)cc1O	–	–	–	–	> 64	–	–	–	–	> 64	–	–
CCCCC(=O)c1c(O)cc(O)c(C(=O)C(C)CC)c1O (stereo not given)	8 (≈ 27.2 µM)	4 (≈ 13.6 µM)	> 64	8	1 (≈ 3.4 µM)	> 64	> 64	1 (≈ 3.4 µM)	4	1 (≈ 3.4 µM)	75	76
CCCCC(=O)c1c(O)cc(O)c(C(=O)CCC(C)C)c1O	8 (≈ 25.9 µM)	2 (≈ 6.49 µM)	> 64	16	0.5 (≈ 1.62 µM)	> 64	> 64	0.5 (≈ 1.62 µM)	4	0.5 (≈ 1.62 µM)	75	76
CCCCCC(=O)c1c(O)cc(O)c(C(=O)CCCCC)c1O	2 (≈ 6.2 µM)	2 (≈ 6.2 µM)	> 64	4	0.5 (≈ 1.55 µM)	> 64	> 64	0.5 (≈ 1.55 µM)	4	0.5 (≈ 1.55 µM)	–	–
CCCCC(=O)c1c(O)cc(O)c(C(=O)CC(C)(C)C)c1O	4 (≈ 13 µM)	4 (≈ 13 µM)	> 64	–	0.5 (≈ 1.62 µM)	> 64	> 64	0.5 (≈ 1.62 µM)	8	0.5 (≈ 1.62 µM)	75	76
O=C(c1c(O)cc(O)cc1O)C1CCCCC1	–	–	–	–	64 (≈ 271 µM)	–	–	–	–	> 64	–	–
O=C(c1c(O)cc(O)c(C(=O)C2CCCCC2)c1O)C1CCCCC1	2 (≈ 5.77 µM)	8 (≈ 23.1 µM)	> 64	4	1 (≈ 2.89 µM)	> 64	> 64	0.5 (≈ 1.44 µM)	8	0.5 (≈ 1.44 µM)	–	–
CCCCCCCC(=O)c1c(O)cc(O)cc1O	–	–	–	–	8 (≈ 31.7 µM)	–	–	–	–	8 (≈ 31.7 µM)	–	–
CCC(=O)c1c(O)cc(O)cc1O [FLOPROPIONE]	–	–	–	–	> 64	–	–	–	–	> 64	–	–
CCCCC(=O)c1c(O)cc(O)c(C(C)=O)c1O	–	–	–	–	4 (≈ 15.9 µM)	–	–	–	–	8 (≈ 31.7 µM)	–	–
O=C(c1c(O)cc(O)c(C(=O)C2CC2)c1O)C1CC1	–	–	–	–	8 (≈ 30.5 µM)	–	–	–	–	8 (≈ 30.5 µM)	–	–
C[C@H]1c2cccc(O)c2C(=O)C2=C(O)[C@]3(O)C(=O)C(C(N)=O)=C(O)[C@@H](N(C)C)[C@@H]3[C@@H](O)[C@@H]21 [DOXYCYCLINE ANHYDROUS]	–	–	–	–	–	–	–	0.5 (≈ 1.13 µM)	–	–	–	–
CC(C)CCC(=O)c1c(O)cc(O)cc1O	–	–	–	–	32 (≈ 143 µM)	–	–	–	–	64 (≈ 285 µM)	–	–
CC(C)C(=O)c1c(O)cc(O)cc1O [PHLOROISOBUTYROPHENONE]	–	–	–	–	32 (≈ 163 µM)	–	–	–	–	64 (≈ 326 µM)	–	–
CC(=O)c1c(O)cc(O)cc1O [2,4,6-TRIHYDROXYACETOPHENONE]	–	–	–	–	> 64	–	–	–	–	> 64	–	–
CCCCCCCC(=O)c1c(O)cc(O)c(C(=O)CCCCCCC)c1O	2 (≈ 5.28 µM)	1 (≈ 2.64 µM)	> 64	1	1 (≈ 2.64 µM)	> 64	> 64	2 (≈ 5.28 µM)	1	2 (≈ 5.28 µM)	–	–
CCCCC(=O)c1c(O)cc(O)cc1O	–	–	–	–	> 64	–	–	–	–	> 64	–	–
CCC(C)C(=O)c1c(O)cc(O)c(C(=O)C(C)CC)c1O (stereo not given)	–	–	–	–	4 (≈ 13.6 µM)	–	–	–	–	4 (≈ 13.6 µM)	–	–
COc1cc(OC)c(C(C)=O)c(OC)c1C(C)=O	–	–	–	–	> 64	–	–	–	–	> 64	–	–
CC(C)(C)CC(=O)c1c(O)cc(O)cc1O	–	–	–	–	64 (≈ 285 µM)	–	–	–	–	> 64	–	–
O=C(Cc1ccccc1)c1c(O)cc(O)c(C(=O)Cc2ccccc2)c1O	8 (≈ 22.1 µM)	8 (≈ 22.1 µM)	> 64	8	0.5 (≈ 1.38 µM)	64 (≈ 177 µM)	> 64	1 (≈ 2.76 µM)	–	1 (≈ 2.76 µM)	–	–
CCCCC(=O)c1c(O)cc(O)c(C(=O)CCCC)c1O	4 (≈ 13.6 µM)	2 (≈ 6.79 µM)	> 64	–	2 (≈ 6.79 µM)	64 (≈ 217 µM)	> 64	0.5 (≈ 1.7 µM)	–	2 (≈ 6.79 µM)	–	–
CC(C)CCC(=O)c1c(O)cc(O)c(C(=O)CCC(C)C)c1O	2 (≈ 6.2 µM)	2 (≈ 6.2 µM)	> 64	4	0.5 (≈ 1.55 µM)	> 64	> 64	0.5 (≈ 1.55 µM)	4	0.5 (≈ 1.55 µM)	–	–
